Laboratory results: ChEMBL document CHEMBL3352486, “Design, synthesis and biological evaluation of metronidazole-thiazole derivatives as antibacterial inhibitors” (Bioorg Med Chem Lett, 2014)
Converted amounts (≈) assume the structure as drawn.

Columns and labels:
Escherichia coli = assay: Antibacterial activity against Escherichia coli after 24 hrs by MTT method; format: functional, organism-based
Pseudomonas aeruginosa = assay: Antibacterial activity against Pseudomonas aeruginosa after 24 hrs by MTT method; format: functional, organism-based
Bacillus subtilis = assay: Antibacterial activity against Bacillus subtilis after 24 hrs by MTT method; format: functional, organism-based
Bacillus thuringiensis = assay: Antibacterial activity against Bacillus thuringiensis after 24 hrs by MTT method; format: functional, organism-based
[1] = target: T1, Beta-ketoacyl-[acyl-carrier-protein] synthase III (Escherichia coli K-12, UniProt P0A6R0); assay: Inhibition of Escherichia coli FabH
T1 sequence (P0A6R0 whole entry): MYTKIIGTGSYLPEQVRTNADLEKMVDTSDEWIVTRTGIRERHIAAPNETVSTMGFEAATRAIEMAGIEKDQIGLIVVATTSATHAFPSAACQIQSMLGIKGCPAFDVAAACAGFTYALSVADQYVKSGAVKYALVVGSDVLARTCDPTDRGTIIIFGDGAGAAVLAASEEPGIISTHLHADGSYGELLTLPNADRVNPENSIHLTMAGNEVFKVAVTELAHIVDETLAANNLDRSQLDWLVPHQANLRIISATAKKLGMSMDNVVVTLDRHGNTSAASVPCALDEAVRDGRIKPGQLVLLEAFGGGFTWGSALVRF

[2] = Cytotoxicity against human macrophages assessed as drug level causing microscopically detectable alteration in normal cell morphology after 24 hrs by MTT assay; format: cell-based, Macrophage

Row | SMILES | IC50 (Escherichia coli) | IC50 (Pseudomonas aeruginosa) | IC50 (Bacillus subtilis) | IC50 (Bacillus thuringiensis) | IC50 [1] | CC50 at 24 h [2]
1 | Cc1ncc([N+](=O)[O-])n1CCOc1cccc(/C=N\NC(N)=S)c1 | 89.7 µg/mL (≈ 257 µM) | 85.6 µg/mL (≈ 246 µM) | 96.3 µg/mL (≈ 276 µM) | 78.6 µg/mL (≈ 226 µM) |  | 
2 | Cc1ncc([N+](=O)[O-])n1CCOc1cccc(/C=N/Nc2nc(-c3ccccc3)cs2)c1 | 48.6 µg/mL (≈ 108 µM) | 21.6 µg/mL (≈ 48.2 µM) | 118 µg/mL (≈ 264 µM) | 53.7 µg/mL (≈ 120 µM) | 8.6 µM | 
3 | Cc1ncc([N+](=O)[O-])n1CCOc1cccc(/C=N/Nc2nc(-c3ccc(Br)cc3)cs2)c1 | 98.3 µg/mL (≈ 186 µM) | 83.9 µg/mL (≈ 159 µM) | 117 µg/mL (≈ 223 µM) | 98 µg/mL (≈ 186 µM) | 20.8 µM | 
4 | Cc1ncc([N+](=O)[O-])n1CCOc1ccc(/C=N/Nc2nc(-c3ccc(Br)cc3)cs2)cc1 | 43.3 µg/mL (≈ 82.1 µM) | 85.3 µg/mL (≈ 162 µM) | 98.8 µg/mL (≈ 187 µM) | 66.9 µg/mL (≈ 127 µM) | 6.2 µM | 
5 | COc1ccc(-c2csc(N/N=C/c3cccc(OCCn4c([N+](=O)[O-])cnc4C)c3)n2)cc1 | 28.8 µg/mL (≈ 60.2 µM) | 10.8 µg/mL (≈ 22.6 µM) | 1.9 µg/mL (≈ 3.97 µM) | 5.9 µg/mL (≈ 12.3 µM) | 9.2 µM | 238 µg/mL
6 | Cc1ncc([N+](=O)[O-])n1CCOc1ccc(/C=N/Nc2nc(-c3ccccc3Br)cs2)cc1 | 26.9 µg/mL (≈ 51 µM) | 20.6 µg/mL (≈ 39.1 µM) | 27.6 µg/mL (≈ 52.3 µM) | 88.4 µg/mL (≈ 168 µM) | 4.9 µM | 322 µg/mL
7 | Cc1ncc([N+](=O)[O-])n1CCOc1cccc(/C=N/Nc2nc(-c3ccc(C(F)(F)F)cc3)cs2)c1 | 48.8 µg/mL (≈ 94.5 µM) | 3.6 µg/mL (≈ 6.97 µM) | 3.7 µg/mL (≈ 7.16 µM) | 73 µg/mL (≈ 141 µM) | 13.5 µM | 517 µg/mL
8 | COc1ccc(-c2csc(N/N=C/c3ccc(OCCn4c([N+](=O)[O-])cnc4C)cc3)n2)cc1 | 50.8 µg/mL (≈ 106 µM) | 6.3 µg/mL (≈ 13.2 µM) | 19.4 µg/mL (≈ 40.5 µM) | 26.2 µg/mL (≈ 54.8 µM) | 6.1 µM | 268 µg/mL
9 | Cc1ncc([N+](=O)[O-])n1CCOc1ccc(/C=N\NC(N)=S)cc1 | 111 µg/mL (≈ 318 µM) | 98.3 µg/mL (≈ 282 µM) | 103 µg/mL (≈ 296 µM) | 88.4 µg/mL (≈ 254 µM) |  | 
10 | Cc1ncc([N+](=O)[O-])n1CCOc1ccc(/C=N/Nc2nc(-c3ccccc3)cs2)cc1 | 38.3 µg/mL (≈ 85.4 µM) | 38.2 µg/mL (≈ 85.2 µM) | 13.1 µg/mL (≈ 29.2 µM) | 15.5 µg/mL (≈ 34.6 µM) | 5.2 µM | 467 µg/mL
11 | NC[C@H]1O[C@H](O[C@H]2[C@H](O)[C@@H](O[C@H]3O[C@H](CO)[C@@H](O)[C@H](N)[C@H]3O)[C@H](N)C[C@@H]2N)[C@H](O)[C@@H](O)[C@@H]1O [KANAMYCIN] | 46.3 µg/mL (≈ 95.6 µM) |  |  |  | 6.8 µM | 
12 | Cc1ncc([N+](=O)[O-])n1CCOc1cccc(/C=N/Nc2nc(-c3ccccc3Br)cs2)c1 | 75.2 µg/mL (≈ 143 µM) | 67.7 µg/mL (≈ 128 µM) | 15.5 µg/mL (≈ 29.4 µM) | 58.7 µg/mL (≈ 111 µM) | 36.2 µM | 
13 | Cc1ncc([N+](=O)[O-])n1CCOc1ccc(/C=N/Nc2nc(-c3ccc(C(F)(F)F)cc3)cs2)cc1 | 41.2 µg/mL (≈ 79.8 µM) | 98 µg/mL (≈ 190 µM) | 32.8 µg/mL (≈ 63.5 µM) | 78.8 µg/mL (≈ 153 µM) | 7.2 µM | 218 µg/mL
